ChEMBL document CHEMBL1140446, “Designed multiple ligands. An emerging drug discovery paradigm” (J Med Chem, 2005)

Assays:
[1] = target: T1, Type-1 angiotensin II receptor (Homo sapiens, UniProt P30556)
T1 sequence (P30556 whole entry): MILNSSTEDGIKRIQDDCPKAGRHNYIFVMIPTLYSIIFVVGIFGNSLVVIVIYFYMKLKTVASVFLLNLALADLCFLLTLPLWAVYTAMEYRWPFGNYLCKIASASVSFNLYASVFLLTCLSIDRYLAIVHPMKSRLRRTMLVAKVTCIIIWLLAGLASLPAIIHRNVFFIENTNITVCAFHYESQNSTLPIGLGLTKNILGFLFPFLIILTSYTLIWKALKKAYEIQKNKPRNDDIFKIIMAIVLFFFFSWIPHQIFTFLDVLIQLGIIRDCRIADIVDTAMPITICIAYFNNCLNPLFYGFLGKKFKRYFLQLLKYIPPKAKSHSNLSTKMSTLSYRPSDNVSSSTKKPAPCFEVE
Description: Inhibitory concentration against angiotensin II receptor, type 1

Endothelin-1 receptor = target: T2, Endothelin-1 receptor (Homo sapiens, UniProt P25101); test: Inhibitory concentration against endothelin receptor type A
T2 sequence (P25101 whole entry): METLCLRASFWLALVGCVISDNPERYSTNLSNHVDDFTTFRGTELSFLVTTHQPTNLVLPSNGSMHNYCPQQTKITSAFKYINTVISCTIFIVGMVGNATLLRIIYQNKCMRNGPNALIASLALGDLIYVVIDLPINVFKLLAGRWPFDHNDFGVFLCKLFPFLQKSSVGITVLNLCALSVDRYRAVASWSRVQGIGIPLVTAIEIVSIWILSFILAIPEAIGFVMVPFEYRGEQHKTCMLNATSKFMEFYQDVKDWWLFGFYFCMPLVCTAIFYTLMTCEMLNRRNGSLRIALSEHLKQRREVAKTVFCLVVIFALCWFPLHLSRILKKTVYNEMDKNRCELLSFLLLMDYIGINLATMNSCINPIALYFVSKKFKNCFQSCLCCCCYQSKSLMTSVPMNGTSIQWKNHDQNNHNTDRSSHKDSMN

[2] = target: Endothelin receptor type B (Homo sapiens, UniProt P24530)
Endothelin receptor type B, sequence (P24530 whole entry): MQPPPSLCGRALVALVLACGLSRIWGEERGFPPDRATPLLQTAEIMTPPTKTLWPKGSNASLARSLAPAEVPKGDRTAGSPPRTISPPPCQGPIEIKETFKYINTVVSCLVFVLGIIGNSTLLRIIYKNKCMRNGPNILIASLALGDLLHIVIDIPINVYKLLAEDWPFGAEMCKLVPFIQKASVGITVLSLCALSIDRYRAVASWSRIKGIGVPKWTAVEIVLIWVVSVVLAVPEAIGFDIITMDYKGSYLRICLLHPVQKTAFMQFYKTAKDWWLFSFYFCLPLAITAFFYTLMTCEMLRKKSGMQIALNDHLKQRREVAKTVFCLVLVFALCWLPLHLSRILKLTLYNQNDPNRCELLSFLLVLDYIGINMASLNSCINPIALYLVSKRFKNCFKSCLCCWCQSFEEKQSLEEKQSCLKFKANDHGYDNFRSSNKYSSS
Description: Inhibitory concentration against endothelin receptor type B

[3] = target: T3, Type-2 angiotensin II receptor (Homo sapiens, UniProt P50052)
T3 sequence (P50052 whole entry): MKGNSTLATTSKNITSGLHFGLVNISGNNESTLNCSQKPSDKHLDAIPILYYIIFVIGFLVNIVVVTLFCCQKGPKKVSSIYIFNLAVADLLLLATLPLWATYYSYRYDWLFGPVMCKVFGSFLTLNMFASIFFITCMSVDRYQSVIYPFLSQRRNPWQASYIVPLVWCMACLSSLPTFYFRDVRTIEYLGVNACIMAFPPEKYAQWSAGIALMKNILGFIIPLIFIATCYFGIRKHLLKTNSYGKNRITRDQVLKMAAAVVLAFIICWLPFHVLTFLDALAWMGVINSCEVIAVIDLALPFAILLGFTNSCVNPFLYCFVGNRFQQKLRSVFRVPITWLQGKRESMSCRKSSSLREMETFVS
Description: Inhibitory concentration against angiotensin II receptor, type 2

CCCc1cc(Cn2c(CC)nc3c(C)cc(C)nc32)ccc1OC(C(=O)NS(=O)(=O)c1ccc(C(C)C)cc1)c1ccc2c(c1)OCC2 (centres undefined)
IC50 [1]: 13 nM | IC50 (Endothelin-1 receptor): 24 nM | IC50 [2]: 60 nM | IC50 [3]: 32 nM
